Laboratory results published in patent publication US11541010B2, “Amphoteric liposomes comprising imino lipids” (BioNTech Delivery Technologies GmbH, priority 2009, dated 2023).
Entries after “also recorded” stand apart in the source; their conditions may differ.

Legend:
Assay type in all cases: cell-based
[1] = test system: HeLa cells; experiment: Serum resistant transfection, cationic lipids with phosphate lipid DOPA, HeLa IC50 (Example 15); conditions: liposomes of the cationic lipid in combination with phosphate lipid DOPA, PLK-1 siRNA
Method: (§1) HeLa cells were obtained from DSMZ (German Collection of Micro Organism and Cell Cultures) and maintained in DMFM (Gibco-Invitrogen) and supplemented with 10% FCS. The cells were plated at a density of 2.5×10^4 cells/ml and cultivated in 100 μl medium at 37° C. under 5% CO2. After 16 h, the liposomes containing siRNA were diluted and 10 μl were added to the cells to yield final concentrations between 0.4 to 100 nM Plk1 or scrambled siRNA; 10 μl dilution buffer were also added to untreated cells and into wells without cells. Cell culture dishes were incubated for 72 h at 37° C. under 5% CO2
(§2) Cell proliferation/viability was determined by using the CellTiter-Blue Cell Viability assay (Promega, US) according to the instructions of the supplier.
Series of liposomes having C/A ratios of either 0.75 or 1 were produced and loaded with siRNA as in Example 5. The cationic lipid components were CHOLGUA, CHIM, DC-CHOL, GUADACA, MPDACA, BADACA, PONA, DOTAP or DODAP. The anionic lipid was DOPA and the cholesterol content was 40 mol %, all lipid mixtures are identified in table 20. Liposomes were further supplied with 1.5 mol % DMPE-PEG2000 (Nippon Oils and Fats).
(§3) HeLa cells were grown and maintained as in Example 2 and mouse serum (SIGMA-Aldrich) was added directly to the cells for 120-min. Following that, the liposomes were added to the cells, incubation was continued for 72 h and cell viability was determined as above. The efficacy of transfection is expressed here as IC50 (in nM of siRNA) as in Example 5.

[2] = test system: HeLa cells; experiment: Serum resistant transfection, DACA or cholesterol based cationic lipids with carboxyl lipids, HeLa (Example 14); conditions: for serum-resistant transfection of HeLa cells: liposomes of the cationic lipid with carboxyl lipid DOGS and cholesterol, PLK-1 siRNA, 10% mouse serum; for transfection of HeLa cells in the presence of mouse serum: liposomes of the cationic lipid with carboxyl lipids CHEMS, DMGS or DOGS, 20 or 40 mol % cholesterol
Method: All liposomes were loaded with PLK-1 siRNA, an oligonucleotide capable of inhibiting the production of the cell cycle kinase PLK-1 and successful transfection was measured by inhibition of cell viability of the test cells (see also Haupenthai et al., int. J. Cancer (2007), 121:206-210. Unspecific inhibition of the cell viability, that is, cytotoxic effects, were monitored by control preparations comprising a non-targeting siRNA of the same general composition and in the same amounts.
The transfection of cells was followed in regular cell culture medium or with the additional presence of 10% mouse serum, a potent inhibitor of cellular uptake for many amphoteric liposomes. The efficacy of transfection is expressed as IC50, the concentration needed to achieve a 50% inhibition of the cell viability.
The ratio between the IC50 in regular medium and the IC50 upon addition of mouse serum is used as a metric for the inhibition of the cellular uptake by mouse serum. This ratio is 5 or higher for liposomes without specific targeting properties. It is 5 or lower for the liposomes of this invention; that is liposomes comprising charged imino groups in combination with negatively charged lipids.
Series of liposomes having systematically varied ratios between the cationic and anionic lipid components were produced and loaded with siRNA as in Example 5. The cationic lipid components were CHOLGUA, CHIM, DC-CHOL, TC-CHOL, GUADACA, MPDACA, BADACA end PDAGA. The anionic lipids were CHEMS, DMGS or DOGS and the cholesterol content was either 20 or 40 mol %, all lipid mixtures are identified in the data tables. Liposomes having a ratio of the cationic: anionic lipid of 1 or greater (C/A>=1) were further supplied with 1.5 mol % DMPE-PEG2000 (Nippon Oils and Fats).
as §3, with “120 min.” for “120-min.”, “The highest concentrations of liposomes were 40 nM and 36 nM for experiments in the absence or presence of mouse serum, respectively. The” for “The”, “nM” for “nM of”

[3] = test system: HeLa cells; experiment: Criticality of the guanido head group, HeLa proliferation IC50 with and without sera (Example 6); conditions: mixtures comprising an excess of the anionic lipid CHEMS, 20% cholesterol
Method: as §1, §2
Series of liposomes having systematically varied ratios between the cationic and anionic lipid components were produced and loaded with siRNA as in Example 5. The cationic lipid components were PONA, PONamine and PONammonium, the anionic lipid was CHEMS and the cholesterol content was fixed to 20 mol %. […]
HeLa cells were grown and maintained as in Example 2 and sera of human or mice origin (SIGMA-Aldrich) was added directly to the cells for 120 min. Following that, the liposomes were added to the cells in concentrations between 50 pM and 50 nM, incubation was continued for 72 h and cell viability was determined as above. […]

| Compound | transfection of HeLa cells in the presence of serum [1] | serum-resistant transfection of HeLa cells [2] | transfection of HeLa cells in the presence of mouse serum [2] | transfection activity in the presence of sera [3] |
| --- | --- | --- | --- | --- |
| CCCCCCCC/C=C/CCCCCCCC(=O)NC(CCN)C(=O)NCCCCCCCCCCCCCCCC (centres unmarked) [PONamine] | resulted in serum-resistant transfection |  |  |  |
| CC(C)CCC[C@@H](C)[C@H]1CC[C@H]2[C@@H]3CCC4CC(OC(=O)NCCCn5ccnc5)CC[C@]4(C)[C@H]3CC[C@]12C (some centres unmarked) [CHIM, reference compound] | did not result in any transfection in the presence of serum |  |  |  |
| CC(C)CCC[C@@H](C)[C@H]1CC[C@H]2[C@@H]3CC=C4C[C@@H](OC(=O)NCCNC(=N)N)CC[C@]4(C)[C@H]3CC[C@]12C [CHOLGUA] | remain potent transfectants even in the presence of mouse serum | best serum-resistant transfection | remain potent transfectants even in the presence of mouse serum |  |
| CCCCCCCC/C=C/CCCCCCCC(=O)NC(CCNC(=N)N)C(=O)NCCCCCCCCCCCCCCCC (centres unmarked) [PONA, palmitoyl-oleoyl-nor-arginine] | resulted in serum-resistant transfection; also recorded: remain potent transfectants even in the presence of mouse serum |  | remain potent transfectants even in the presence of mouse serum |  |
| CC(C)CCC[C@@H](C)[C@H]1CC[C@H]2[C@@H]3CC=C4C[C@@H](OC(=O)NCCN(C)C)CC[C@]4(C)[C@H]3CC[C@]12C [DC-CHOL, reference compound] | did not result in any transfection in the presence of serum | still active in the absence, but no longer in the presence of mouse serum |  |  |
| CCCCCCCC/C=C/CCCCCCCC(=O)NC(CC[N+](C)(C)C)C(=O)NCCCCCCCCCCCCCCCC (centres unmarked) [PONammonium] | not PONammonium resulted in serum-resistant transfection |  |  | remained inactive in the presence of sera |
